Data reported in paper PMC11062922 (Nature Chemical Biology, 2023).
Blank lines part the entries; values can stand above or below the compound they belong to.

Experiments:
SYK = molecular target: T1, SYK (Homo sapiens, UniProt P43405); experiment: Kinobeads two-dose competition binding: SYK; conditions: SYK
T1 construct: endogenous in cells

GRK6 = molecular target: T2, GRK6 (Homo sapiens, UniProt P43250); experiment: Kinobeads two-dose competition binding: GRK6; conditions: target GRK6
T2 construct: endogenous in cells

AIFM1 = experiment: Kinobeads competition binding: AIFM1; set-up: species or system human; conditions: target AIFM1
AURKB = molecular target: T3, AURKB (Homo sapiens, UniProt Q96GD4); experiment: Kinobeads competition binding: AURKB; conditions: target AURKB
T3 construct: endogenous in cells

CAMK4 = experiment: Kinobeads competition binding: CAMK4; set-up: species or system human; conditions: target CAMK4;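 also: selectivity score: engagement of this protein divided by summed engagement of all targets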
CAMKK2 = molecular target: T4, CAMKK2 (Homo sapiens, UniProt Q96RR4); experiment: Kinobeads competition binding: CAMKK2; conditions: target CAMKK2
T4 construct: endogenous in cells
From the text: Supplement 41589_2023_1459_MOESM4_ESM.xlsx, sheet "CATDS matrix" | column: CAMKK2

CDK10 = experiment: Kinobeads competition binding: CDK10; set-up: species or system human; conditions: target CDK10
CDK9 = experiment: Kinobeads competition binding: CDK9; set-up: species or system human; conditions: target CDK9
ERCC2 = experiment: Kinobeads competition binding: ERCC2; set-up: species or system human; conditions: target ERCC2
GSK3A = molecular target: T5, GSK3A (Homo sapiens, UniProt P49840); experiment: Kinobeads competition binding: GSK3A; conditions: target GSK3A
T5 construct: endogenous in cells

IGF1R = experiment: Kinobeads competition binding: IGF1R; set-up: species or system human; conditions: target IGF1R;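 also: selectivity score: engagement of this protein divided by summed engagement of all targets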
MAPK14 = molecular target: T6, MAPK14 (Homo sapiens, UniProt Q16539); experiment: Kinobeads competition binding: MAPK14; conditions: target MAPK14
T6 construct: endogenous in cells

MARK2 = experiment: Kinobeads competition binding: MARK2; set-up: species or system human; conditions: target MARK2
MTOR = experiment: Kinobeads competition binding: MTOR; set-up: species or system human; conditions: target MTOR
NEK1 = experiment: Kinobeads competition binding: NEK1; set-up: species or system human; conditions: target NEK1
PIK3CD = molecular target: T7, PIK3CD (Homo sapiens, UniProt O00329); experiment: Kinobeads competition binding: PIK3CD; conditions: target PIK3CD
T7 construct: a mixture of lysates from five cancer cell lines; endogenous in cells

PIM2 = molecular target: T8, PIM2 (Homo sapiens, UniProt Q9P1W9); experiment: Kinobeads competition binding: PIM2; conditions: target PIM2
T8 construct: a mixture of lysates from five cancer cell lines; endogenous in cells
From the text: Supplement 41589_2023_1459_MOESM4_ESM.xlsx, sheet "CATDS matrix" | column: PIM2

PIM3 = molecular target: T9, PIM3 (Homo sapiens, UniProt Q86V86); experiment: Kinobeads competition binding: PIM3; conditions: target PIM3
T9 construct: a mixture of lysates from five cancer cell lines; endogenous in cells
From the text: Supplement 41589_2023_1459_MOESM4_ESM.xlsx, sheet "CATDS matrix" | column: PIM3

ADCK3 = ADCK3 (Homo sapiens, UniProt Q8NI60); experiment: Kinobeads competition binding: ADCK3; set-up: endogenous in cells; conditions: target ADCK3
PAK4 = molecular target: T10, PAK4 (Homo sapiens, UniProt O96013); experiment: Kinobeads full dose-response competition binding: PAK4; conditions: Gene Name PAK4, DMSO = 1
T10 construct: a mixture of lysates from five cancer cell lines; endogenous in cells

GSK3B = molecular target: T11, GSK3B (Homo sapiens, UniProt P49841); experiment: Kinobeads full dose-response competition binding: GSK3B; conditions: Gene Name GSK3B
T11 construct: endogenous in cells

PKN1 = molecular target: T12, PKN1 (Homo sapiens, UniProt Q16512); experiment: Kinobeads full dose-response competition binding: PKN1; conditions: Gene Name PKN1
T12 construct: a mixture of lysates from five cancer cell lines; endogenous in cells

PRKX = molecular target: T13, PRKX (Homo sapiens, UniProt P51817); experiment: Kinobeads full dose-response competition binding: PRKX; conditions: Gene Name PRKX
T13 construct: endogenous in cells
T13 sequence (P51817 1-358): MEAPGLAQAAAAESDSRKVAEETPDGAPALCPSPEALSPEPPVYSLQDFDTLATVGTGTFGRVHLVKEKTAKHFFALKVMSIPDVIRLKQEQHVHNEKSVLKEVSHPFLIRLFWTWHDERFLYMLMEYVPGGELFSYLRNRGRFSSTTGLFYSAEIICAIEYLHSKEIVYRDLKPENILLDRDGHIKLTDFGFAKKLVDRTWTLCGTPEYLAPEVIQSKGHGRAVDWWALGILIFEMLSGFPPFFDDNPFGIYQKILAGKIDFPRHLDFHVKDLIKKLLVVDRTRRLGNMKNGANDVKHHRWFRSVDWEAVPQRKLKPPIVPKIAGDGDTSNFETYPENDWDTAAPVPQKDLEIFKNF

[1] = EC50 with Correction, doses in nM, read-out: apparent Kd
[2] = eight-dose curve fit, doses in nM

T10 sequence (O96013 whole entry): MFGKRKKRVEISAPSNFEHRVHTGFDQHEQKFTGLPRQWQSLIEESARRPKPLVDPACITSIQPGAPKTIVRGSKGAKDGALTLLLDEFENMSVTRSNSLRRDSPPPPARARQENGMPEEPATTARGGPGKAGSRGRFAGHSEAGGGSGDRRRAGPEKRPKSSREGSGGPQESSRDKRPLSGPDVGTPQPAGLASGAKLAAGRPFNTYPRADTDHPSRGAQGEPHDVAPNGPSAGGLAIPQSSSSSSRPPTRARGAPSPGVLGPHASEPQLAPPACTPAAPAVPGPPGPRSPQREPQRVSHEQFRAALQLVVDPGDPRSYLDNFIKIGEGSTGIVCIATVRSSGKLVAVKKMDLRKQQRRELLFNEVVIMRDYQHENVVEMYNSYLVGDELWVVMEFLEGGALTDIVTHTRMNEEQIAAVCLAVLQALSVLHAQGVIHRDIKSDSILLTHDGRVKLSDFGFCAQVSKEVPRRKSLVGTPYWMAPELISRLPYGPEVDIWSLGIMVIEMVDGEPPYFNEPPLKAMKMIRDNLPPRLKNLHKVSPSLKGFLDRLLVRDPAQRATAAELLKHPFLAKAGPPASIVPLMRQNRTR
T12 sequence (Q16512 whole entry): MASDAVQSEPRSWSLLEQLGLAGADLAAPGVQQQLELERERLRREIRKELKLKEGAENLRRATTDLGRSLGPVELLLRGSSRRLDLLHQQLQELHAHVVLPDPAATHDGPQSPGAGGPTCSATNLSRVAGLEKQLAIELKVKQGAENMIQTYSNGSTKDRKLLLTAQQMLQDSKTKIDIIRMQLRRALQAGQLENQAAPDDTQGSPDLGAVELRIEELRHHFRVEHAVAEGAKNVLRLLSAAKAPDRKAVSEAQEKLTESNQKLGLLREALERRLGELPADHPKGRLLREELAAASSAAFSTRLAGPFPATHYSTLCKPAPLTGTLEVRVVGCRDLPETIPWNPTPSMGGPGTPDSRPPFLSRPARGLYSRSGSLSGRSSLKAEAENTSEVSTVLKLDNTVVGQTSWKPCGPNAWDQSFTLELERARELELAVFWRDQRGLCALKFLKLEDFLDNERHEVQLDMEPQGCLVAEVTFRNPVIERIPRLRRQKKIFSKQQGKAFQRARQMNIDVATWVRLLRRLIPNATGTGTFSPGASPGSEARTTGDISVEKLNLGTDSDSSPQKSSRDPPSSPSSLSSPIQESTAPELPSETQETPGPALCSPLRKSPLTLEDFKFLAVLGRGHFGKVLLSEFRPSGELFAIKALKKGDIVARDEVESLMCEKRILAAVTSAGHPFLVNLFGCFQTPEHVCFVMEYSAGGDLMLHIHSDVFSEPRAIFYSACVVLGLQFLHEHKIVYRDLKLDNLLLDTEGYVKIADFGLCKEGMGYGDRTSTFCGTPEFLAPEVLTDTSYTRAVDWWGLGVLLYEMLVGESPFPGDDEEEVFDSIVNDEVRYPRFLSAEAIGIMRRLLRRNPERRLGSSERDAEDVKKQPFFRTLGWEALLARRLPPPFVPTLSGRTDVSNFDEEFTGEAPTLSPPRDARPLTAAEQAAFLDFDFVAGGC
T11 sequence (P49841 whole entry): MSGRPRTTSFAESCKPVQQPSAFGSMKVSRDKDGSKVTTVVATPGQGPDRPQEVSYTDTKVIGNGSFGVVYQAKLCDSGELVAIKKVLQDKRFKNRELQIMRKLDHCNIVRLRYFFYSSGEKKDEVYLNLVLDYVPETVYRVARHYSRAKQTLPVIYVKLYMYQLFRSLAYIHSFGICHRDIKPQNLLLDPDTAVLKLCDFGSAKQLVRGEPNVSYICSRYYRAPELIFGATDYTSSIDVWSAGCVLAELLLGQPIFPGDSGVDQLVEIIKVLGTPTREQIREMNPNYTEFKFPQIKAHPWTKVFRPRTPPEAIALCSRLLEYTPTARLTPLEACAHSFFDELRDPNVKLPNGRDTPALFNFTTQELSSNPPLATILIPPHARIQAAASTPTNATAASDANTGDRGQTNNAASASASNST
T2 sequence (P43250 whole entry): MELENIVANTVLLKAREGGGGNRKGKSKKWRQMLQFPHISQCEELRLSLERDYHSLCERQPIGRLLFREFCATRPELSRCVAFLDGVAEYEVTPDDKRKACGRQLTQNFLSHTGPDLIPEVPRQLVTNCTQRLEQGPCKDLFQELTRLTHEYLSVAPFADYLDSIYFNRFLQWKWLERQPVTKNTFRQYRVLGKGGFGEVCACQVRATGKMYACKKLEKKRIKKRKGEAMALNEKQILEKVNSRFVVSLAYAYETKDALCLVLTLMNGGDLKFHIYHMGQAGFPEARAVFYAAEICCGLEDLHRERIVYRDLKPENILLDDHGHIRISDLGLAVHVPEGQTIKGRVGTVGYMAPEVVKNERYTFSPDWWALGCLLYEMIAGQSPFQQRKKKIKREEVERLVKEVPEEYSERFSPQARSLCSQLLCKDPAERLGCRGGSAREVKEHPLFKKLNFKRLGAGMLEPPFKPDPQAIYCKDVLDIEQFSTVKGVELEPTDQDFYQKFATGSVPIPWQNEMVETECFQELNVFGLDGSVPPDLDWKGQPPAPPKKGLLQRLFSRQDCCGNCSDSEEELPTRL
T5 sequence (P49840 whole entry): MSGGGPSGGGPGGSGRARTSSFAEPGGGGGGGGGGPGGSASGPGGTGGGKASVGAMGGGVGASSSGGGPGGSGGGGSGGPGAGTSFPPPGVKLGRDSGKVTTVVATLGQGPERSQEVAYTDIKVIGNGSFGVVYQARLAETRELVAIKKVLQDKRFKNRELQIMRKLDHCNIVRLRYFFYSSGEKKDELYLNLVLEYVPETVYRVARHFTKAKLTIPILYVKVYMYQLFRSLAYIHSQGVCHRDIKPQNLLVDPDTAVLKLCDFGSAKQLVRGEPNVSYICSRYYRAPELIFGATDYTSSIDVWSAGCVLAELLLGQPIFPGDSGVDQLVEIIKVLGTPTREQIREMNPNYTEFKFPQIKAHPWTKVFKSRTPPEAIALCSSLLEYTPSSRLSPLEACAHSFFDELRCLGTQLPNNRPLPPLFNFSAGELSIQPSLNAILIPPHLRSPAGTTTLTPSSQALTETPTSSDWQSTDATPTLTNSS
T4 sequence (Q96RR4 whole entry): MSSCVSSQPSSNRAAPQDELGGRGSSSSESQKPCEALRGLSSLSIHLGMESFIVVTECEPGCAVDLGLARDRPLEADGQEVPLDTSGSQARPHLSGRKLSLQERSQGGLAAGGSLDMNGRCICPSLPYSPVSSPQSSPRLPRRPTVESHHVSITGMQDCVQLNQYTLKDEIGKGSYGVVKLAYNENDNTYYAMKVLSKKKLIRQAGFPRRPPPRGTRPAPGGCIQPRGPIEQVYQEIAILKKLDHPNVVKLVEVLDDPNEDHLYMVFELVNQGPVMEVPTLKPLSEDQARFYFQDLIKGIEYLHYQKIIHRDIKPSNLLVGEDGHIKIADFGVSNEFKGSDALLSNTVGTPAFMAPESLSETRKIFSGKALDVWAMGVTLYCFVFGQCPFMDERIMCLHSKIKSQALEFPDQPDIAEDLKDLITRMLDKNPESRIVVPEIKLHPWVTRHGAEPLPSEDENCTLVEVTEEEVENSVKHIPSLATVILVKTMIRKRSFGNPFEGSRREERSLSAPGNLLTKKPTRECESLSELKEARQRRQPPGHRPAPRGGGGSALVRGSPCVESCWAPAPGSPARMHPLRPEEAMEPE
T8 sequence (Q9P1W9 whole entry): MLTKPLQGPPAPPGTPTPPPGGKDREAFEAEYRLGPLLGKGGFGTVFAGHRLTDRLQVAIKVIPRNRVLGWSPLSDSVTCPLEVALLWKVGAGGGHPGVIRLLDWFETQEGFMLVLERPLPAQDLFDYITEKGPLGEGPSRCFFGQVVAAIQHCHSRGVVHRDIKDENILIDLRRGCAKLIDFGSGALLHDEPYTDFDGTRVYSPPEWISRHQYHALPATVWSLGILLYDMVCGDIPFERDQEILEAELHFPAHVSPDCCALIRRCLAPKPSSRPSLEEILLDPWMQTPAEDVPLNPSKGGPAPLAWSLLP
T6 sequence (Q16539 whole entry): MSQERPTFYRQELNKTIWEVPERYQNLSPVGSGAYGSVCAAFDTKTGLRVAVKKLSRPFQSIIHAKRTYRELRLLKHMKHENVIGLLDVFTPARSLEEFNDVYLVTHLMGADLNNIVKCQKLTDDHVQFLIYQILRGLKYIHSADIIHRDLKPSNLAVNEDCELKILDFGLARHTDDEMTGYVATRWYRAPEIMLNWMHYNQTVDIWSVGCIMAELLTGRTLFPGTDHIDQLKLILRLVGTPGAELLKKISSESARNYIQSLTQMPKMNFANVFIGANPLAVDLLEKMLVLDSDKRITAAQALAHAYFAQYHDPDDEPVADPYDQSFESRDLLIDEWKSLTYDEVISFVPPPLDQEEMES
T3 sequence (Q96GD4 whole entry): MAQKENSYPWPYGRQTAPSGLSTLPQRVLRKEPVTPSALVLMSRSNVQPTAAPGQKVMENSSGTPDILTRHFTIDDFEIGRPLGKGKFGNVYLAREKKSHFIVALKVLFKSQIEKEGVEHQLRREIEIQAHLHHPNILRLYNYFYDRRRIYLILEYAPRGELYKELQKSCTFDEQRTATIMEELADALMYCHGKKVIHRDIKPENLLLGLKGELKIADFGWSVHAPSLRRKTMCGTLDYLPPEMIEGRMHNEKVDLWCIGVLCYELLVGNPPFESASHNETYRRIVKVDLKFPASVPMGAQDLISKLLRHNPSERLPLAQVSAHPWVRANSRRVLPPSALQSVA

Structure (SMILES): COc1cc(Nc2ncc3c(C)nc(-c4cc5ccccc5[nH]4)n3n2)cc(OC)c1OC [GW869516X]
- Kinobeads Data (SYK): no target

Structure (SMILES): CCN1CCN(Cc2ccc(Nc3ncc(F)c(-c4cc(F)c5nc(C)n(C(C)C)c5c4)n3)nc2)CC1 [Abemaciclib]
- CATDS (GRK6): 0
- CATDS (AIFM1): 0
- CATDS (AURKB): 0
- CATDS (CAMK4): 0
- CATDS (CAMKK2): 0
- CATDS (CDK10): 0
- CATDS (CDK9): 0.02947
- CATDS (ERCC2): 0
- CATDS (GSK3A): 0.08929
- CATDS (IGF1R): 0
- CATDS (MAPK14): 0
- CATDS (MARK2): 0
- CATDS (MTOR): 0
- CATDS (NEK1): 0
- CATDS (PIK3CD): 0
- CATDS (PIM2): 0
- CATDS (PIM3): 0
- CATDS (ADCK3): 0

- Relative Intensity 0.3nM (PAK4; 0.3nM compound): 1.05
- Relative Intensity 1nM (PAK4; 1nM compound): 1.027
- Relative Intensity 3nM (PAK4; 3nM compound): 1.044
- Relative Intensity 10nM (PAK4; 10nM compound): 0.9586
- Relative Intensity 30nM (PAK4; 30nM compound): 0.8645
- Relative Intensity 100nM (PAK4; 100nM compound): 0.8782
- Relative Intensity 300nM (PAK4; 300nM compound): 0.7175
- Relative Intensity 1000nM (PAK4; 1000nM compound): 0.4475
- Relative Intensity 0.3nM (GSK3B; 0.3nM compound, DMSO = 1): 1.05
- Relative Intensity 1nM (GSK3B; 1nM compound, DMSO = 1): 1.092
- Relative Intensity 3nM (GSK3B; 3nM compound, DMSO = 1): 1.084
- Relative Intensity 10nM (GSK3B; 10nM compound, DMSO = 1): 0.9805
- Relative Intensity 30nM (GSK3B; 30nM compound, DMSO = 1): 0.9007
- Relative Intensity 100nM (GSK3B; 100nM compound, DMSO = 1): 0.8389
- Relative Intensity 300nM (GSK3B; 300nM compound, DMSO = 1): 0.5163
- Relative Intensity 1000nM (GSK3B; 1000nM compound, DMSO = 1): 0.2905
- Kd (GSK3B; [1]): 288 nM
- EC50 (GSK3B; [2]): 296 nM
- Relative Intensity 0.3nM (PKN1; 0.3nM compound, DMSO = 1): 0.9859
- Relative Intensity 1nM (PKN1; 1nM compound, DMSO = 1): 1.011
- Relative Intensity 3nM (PKN1; 3nM compound, DMSO = 1): 0.9965
- Relative Intensity 10nM (PKN1; 10nM compound, DMSO = 1): 0.9627
- Relative Intensity 30nM (PKN1; 30nM compound, DMSO = 1): 0.7754
- Relative Intensity 100nM (PKN1; 100nM compound, DMSO = 1): 0.5397
- Relative Intensity 300nM (PKN1; 300nM compound, DMSO = 1): 0.2684
- Relative Intensity 1000nM (PKN1; 1000nM compound, DMSO = 1): 0.1427
- Kd (PKN1; [1]): 92.3 nM
- EC50 (PKN1; [2]): 92.3 nM
- Relative Intensity 0.3nM (PRKX; 0.3nM compound, DMSO = 1): 0.9197
- Relative Intensity 1nM (PRKX; 1nM compound, DMSO = 1): 0.9321
- Relative Intensity 3nM (PRKX; 3nM compound, DMSO = 1): 1.015
- Relative Intensity 10nM (PRKX; 10nM compound, DMSO = 1): 0.9379
- Relative Intensity 30nM (PRKX; 30nM compound, DMSO = 1): 0.8892
- Relative Intensity 100nM (PRKX; 100nM compound, DMSO = 1): 0.6426
- Relative Intensity 300nM (PRKX; 300nM compound, DMSO = 1): 0.2553
- Relative Intensity 1000nM (PRKX; 1000nM compound, DMSO = 1): 0.1464
- Kd (PRKX; [1]): 127 nM
- EC50 (PRKX; [2]): 127 nM
Structure (SMILES): CCn1c(-c2nonc2N)nc2c(C#CC(C)(C)O)nc(OCCN)cc21 [GSK902056A]

Structure (SMILES): CN(C)C/C=C/C(=O)Nc1cc2c(Nc3ccc(F)c(Cl)c3)ncnc2cc1O[C@H]1CCOC1 [Afatinib]
- CATDS (GRK6): 0
- CATDS (AIFM1): 0
- CATDS (CAMKK2): 0
- CATDS (CDK10): 0
- CATDS (ERCC2): 0
- CATDS (GSK3A): 0
- CATDS (PIM2): 0
- CATDS (PIM3): 0
